Data: patent US20120245137A1 (Zalicus Pharmaceuticals Ltd., priority 2009, published 2012)
Like-named read-outs stand apart in the source and are kept apart here.

Assays:
Type in all cases: cell-based
[1] = target: human α1H T-type channels (Homo sapiens, UniProt O95180); assay: T-type calcium channel block, whole cell patch clamp, α1H; details: HEK cells stably expressing human α1H; mainly non-inactivated protocol; values above 10,000 nM represented as 10000
Method in brief: (§1)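 Cells are stable HEK 293 lines carrying human α1G or α1H channels, patched in whole-cell mode. Resting block comes from the non-inactivated pre-pulse; voltage-dependent block from the inactivated protocol.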

[2] = target: human α1G T-type channels (Homo sapiens, UniProt O43497); assay: T-type calcium channel block, whole cell patch clamp, α1G; details: HEK cells stably expressing human α1G; mainly non-inactivated protocol; values above 10,000 nM represented as 10000
Method in brief: as §1

[3] = target: N-type calcium channel subunits (α1B, α2δ, and β3a) (Homo sapiens, UniProt Q00975); assay: Block of Cav2.2 channel, whole cell voltage clamp, manual and PatchXpress; details: Table 5; table follows Assay Example 3 (whole cell voltage clamp / PatchXpress); assay not given
Method in brief: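 Percent block taken as current amplitude ratio with versus without compound, applied in rising doses; IC50 fitted where one cell received multiple doses. Protocol: 50 ms pulses to +20 mV at 0.067 Hz from […] or −90 mV holding; P/n leak subtraction, no junction-potential correction; manual and PatchXpress recordings.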

Human Cav 2.2 channels = Human Cav 2.2 channels (Homo sapiens, UniProt Q00975); assay: Fluorescent assay for CaV2.2 channels using potassium depolarization (VIPR/FLIPR); details: FLIPR data
Text: Human Cav 2.2 channels were stably expressed in HEK293 cells along with alpha2-delta and beta subunits of voltage-gated calcium channels. An inwardly rectifying potassium channel (Kir2.3) was also expressed in these cells to allow more precise control of the cell membrane potential by extracellular potassium concentration. At low bath potassium concentration, the membrane potential is relatively negative, and is depolarized as the bath potassium concentration is raised. In this way, the bath potassium concentration can be used to regulate the voltage-dependent conformations of the channels. […] After the incubation period, Cav2.2 channel opening is triggered by addition of higher concentration of potassium (70 mM final concentration) to further depolarize the cell. The degree of state-dependent block can be estimated from the inhibitory potency of compounds after incubation in different potassium concentrations.
Calcium influx through Cav 2.2 channels is determined using a calcium sensitive fluorescent dye in combination with a fluorescent plate reader. Fluorescent changes were measured with either a VIPR (Aurora Instruments) or FLIPR (Molecular Devices) plate reader.
1. Seed cells in Poly-D-Lysine Coated 96 or 384-well plate and keep in a 3rC-IO % C02 incubator overnight.
2. Remove media, wash cells with 0.2 mL (96-well plate) or 0.05 mL (384-well plate) Dulbecco's Phosphate Buffered Saline (D-PBS) with calcium & magnesium (Invitrogen; 14040).
3. Add 0.1 mL (96-well plate) or 0.05 mL (384-well plate) of 4˜M fluor-4 (Molecular Probes; F-14202) and 0.02% Pluronic acid (Molecular Probes; P-3(00) prepared in D-PBS with calcium & magnesium (Invitrogen; 14040) supplemented with 10 mM Glucose & 10 mM HepeslNaOH; pH 7.4.
4. Incubate in the dark at 25° C. for 60-70 min.
5. Remove dye, wash cells with 0.1 mL (96-well plate) or 0.06 mL (384-well plate) of 4, 12, 25, or 30 mM Potassium Pre-polarization Buffer (PPB).
6. Add 0.1 mL (96-well plate) or 0.03 mL (384-well plate) of 4, 12, 25, 30 mM PPB with or without test compound.
7. Incubate in the dark at 25° C. for 30 min
8. Read cell plate on VIPR instrument, Excitation=480 nm, Emission=535 nm.
9. With VIPR continuously reading, add 0.1 mL (96-well plate) or 0.03 mL (384-well plate) of Depolarization Buffer (DB), which is 2× the final assay concentration, to the cell plate.

T-type calcium channel [4] = target: T-type calcium channel (Homo sapiens, UniProt O43497); assay: T-type channel blocking, FLIPR data (Table 6); details: CAv3.1
Text: (§2) Another method, high-throughput spectrophotometric assay, utilizes loading of the cell lines with a fluorescent dye sensitive to intracellular calcium concentration and subsequent examination of the effects of compounds on the ability of depolarization by potassium chloride or other means to alter intracellular calcium levels.

T-type calcium channel [5] = target: T-type calcium channel (Homo sapiens, UniProt O95180); assay: T-type channel blocking, FLIPR data (Table 6)
Text: as §2

[6] = closed state, read-out: CAv2.2 IC50 Closed
[7] = inactivated state, read-out: CAv2.2 IC50 Inact.
[8] = CAv3.2, closed state, read-out: CAv3.2 IC50 Closed
[9] = CAv3.2, inactivated state, read-out: CAv3.2 IC50 Inact.

Chain of T-type calcium channel (Homo sapiens, UniProt O95180) (O95180 whole entry): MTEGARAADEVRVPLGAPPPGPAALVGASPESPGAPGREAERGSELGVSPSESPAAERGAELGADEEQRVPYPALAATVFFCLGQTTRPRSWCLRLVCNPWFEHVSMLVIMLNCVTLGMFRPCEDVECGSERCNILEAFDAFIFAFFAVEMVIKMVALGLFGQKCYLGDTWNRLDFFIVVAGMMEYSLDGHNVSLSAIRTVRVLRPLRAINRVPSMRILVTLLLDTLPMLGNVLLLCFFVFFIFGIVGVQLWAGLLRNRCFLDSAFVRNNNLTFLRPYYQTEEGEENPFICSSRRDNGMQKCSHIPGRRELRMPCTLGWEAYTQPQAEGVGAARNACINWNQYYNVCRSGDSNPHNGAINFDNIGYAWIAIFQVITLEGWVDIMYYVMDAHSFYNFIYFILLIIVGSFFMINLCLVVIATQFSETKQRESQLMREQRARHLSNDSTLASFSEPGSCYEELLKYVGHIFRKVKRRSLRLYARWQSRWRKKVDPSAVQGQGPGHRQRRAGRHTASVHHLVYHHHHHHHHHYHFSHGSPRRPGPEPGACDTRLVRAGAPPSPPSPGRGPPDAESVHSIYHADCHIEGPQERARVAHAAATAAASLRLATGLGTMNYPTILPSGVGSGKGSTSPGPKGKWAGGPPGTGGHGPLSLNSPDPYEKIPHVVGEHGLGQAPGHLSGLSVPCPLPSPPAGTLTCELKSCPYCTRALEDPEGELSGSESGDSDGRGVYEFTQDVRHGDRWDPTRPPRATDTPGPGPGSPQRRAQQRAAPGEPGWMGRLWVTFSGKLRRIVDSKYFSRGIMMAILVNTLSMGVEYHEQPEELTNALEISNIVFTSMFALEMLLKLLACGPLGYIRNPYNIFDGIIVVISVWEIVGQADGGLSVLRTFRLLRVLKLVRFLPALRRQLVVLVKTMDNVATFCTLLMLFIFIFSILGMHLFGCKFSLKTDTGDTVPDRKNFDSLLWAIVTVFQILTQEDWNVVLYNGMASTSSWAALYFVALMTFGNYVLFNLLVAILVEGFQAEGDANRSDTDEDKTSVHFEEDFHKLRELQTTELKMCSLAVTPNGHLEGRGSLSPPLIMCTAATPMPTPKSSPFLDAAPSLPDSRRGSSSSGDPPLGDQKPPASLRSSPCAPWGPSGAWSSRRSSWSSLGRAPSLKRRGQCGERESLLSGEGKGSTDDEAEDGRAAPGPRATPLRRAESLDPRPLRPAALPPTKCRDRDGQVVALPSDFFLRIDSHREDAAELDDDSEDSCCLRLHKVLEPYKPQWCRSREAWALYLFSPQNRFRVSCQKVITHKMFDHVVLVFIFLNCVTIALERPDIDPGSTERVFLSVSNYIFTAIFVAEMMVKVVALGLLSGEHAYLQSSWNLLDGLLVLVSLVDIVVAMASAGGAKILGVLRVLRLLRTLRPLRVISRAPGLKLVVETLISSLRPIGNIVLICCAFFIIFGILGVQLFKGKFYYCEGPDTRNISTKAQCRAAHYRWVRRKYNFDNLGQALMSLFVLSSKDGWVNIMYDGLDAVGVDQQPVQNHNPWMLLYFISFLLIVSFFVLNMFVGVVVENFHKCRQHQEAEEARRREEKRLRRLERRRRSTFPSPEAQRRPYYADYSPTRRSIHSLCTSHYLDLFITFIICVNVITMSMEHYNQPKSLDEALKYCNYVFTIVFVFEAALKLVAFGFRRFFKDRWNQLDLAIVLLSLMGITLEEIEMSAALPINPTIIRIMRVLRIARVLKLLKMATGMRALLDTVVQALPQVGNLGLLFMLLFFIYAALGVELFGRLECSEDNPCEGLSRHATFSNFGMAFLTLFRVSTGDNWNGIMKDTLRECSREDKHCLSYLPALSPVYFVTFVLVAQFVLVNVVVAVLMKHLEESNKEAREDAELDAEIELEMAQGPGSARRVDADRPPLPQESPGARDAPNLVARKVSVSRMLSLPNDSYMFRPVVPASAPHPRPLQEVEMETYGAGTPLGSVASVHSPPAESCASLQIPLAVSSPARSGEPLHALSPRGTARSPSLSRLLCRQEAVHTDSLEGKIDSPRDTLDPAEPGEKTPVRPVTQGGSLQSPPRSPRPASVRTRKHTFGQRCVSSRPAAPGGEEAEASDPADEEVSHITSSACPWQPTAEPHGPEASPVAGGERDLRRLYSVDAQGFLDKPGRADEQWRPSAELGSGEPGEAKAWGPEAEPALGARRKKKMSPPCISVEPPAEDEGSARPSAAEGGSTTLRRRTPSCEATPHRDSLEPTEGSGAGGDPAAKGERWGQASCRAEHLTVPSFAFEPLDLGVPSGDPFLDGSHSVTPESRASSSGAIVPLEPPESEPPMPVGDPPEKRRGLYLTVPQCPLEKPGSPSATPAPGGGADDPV
Chain of human α1H T-type channels (O95180 whole entry): as above
Chain of human α1G T-type channels (O43497 whole entry): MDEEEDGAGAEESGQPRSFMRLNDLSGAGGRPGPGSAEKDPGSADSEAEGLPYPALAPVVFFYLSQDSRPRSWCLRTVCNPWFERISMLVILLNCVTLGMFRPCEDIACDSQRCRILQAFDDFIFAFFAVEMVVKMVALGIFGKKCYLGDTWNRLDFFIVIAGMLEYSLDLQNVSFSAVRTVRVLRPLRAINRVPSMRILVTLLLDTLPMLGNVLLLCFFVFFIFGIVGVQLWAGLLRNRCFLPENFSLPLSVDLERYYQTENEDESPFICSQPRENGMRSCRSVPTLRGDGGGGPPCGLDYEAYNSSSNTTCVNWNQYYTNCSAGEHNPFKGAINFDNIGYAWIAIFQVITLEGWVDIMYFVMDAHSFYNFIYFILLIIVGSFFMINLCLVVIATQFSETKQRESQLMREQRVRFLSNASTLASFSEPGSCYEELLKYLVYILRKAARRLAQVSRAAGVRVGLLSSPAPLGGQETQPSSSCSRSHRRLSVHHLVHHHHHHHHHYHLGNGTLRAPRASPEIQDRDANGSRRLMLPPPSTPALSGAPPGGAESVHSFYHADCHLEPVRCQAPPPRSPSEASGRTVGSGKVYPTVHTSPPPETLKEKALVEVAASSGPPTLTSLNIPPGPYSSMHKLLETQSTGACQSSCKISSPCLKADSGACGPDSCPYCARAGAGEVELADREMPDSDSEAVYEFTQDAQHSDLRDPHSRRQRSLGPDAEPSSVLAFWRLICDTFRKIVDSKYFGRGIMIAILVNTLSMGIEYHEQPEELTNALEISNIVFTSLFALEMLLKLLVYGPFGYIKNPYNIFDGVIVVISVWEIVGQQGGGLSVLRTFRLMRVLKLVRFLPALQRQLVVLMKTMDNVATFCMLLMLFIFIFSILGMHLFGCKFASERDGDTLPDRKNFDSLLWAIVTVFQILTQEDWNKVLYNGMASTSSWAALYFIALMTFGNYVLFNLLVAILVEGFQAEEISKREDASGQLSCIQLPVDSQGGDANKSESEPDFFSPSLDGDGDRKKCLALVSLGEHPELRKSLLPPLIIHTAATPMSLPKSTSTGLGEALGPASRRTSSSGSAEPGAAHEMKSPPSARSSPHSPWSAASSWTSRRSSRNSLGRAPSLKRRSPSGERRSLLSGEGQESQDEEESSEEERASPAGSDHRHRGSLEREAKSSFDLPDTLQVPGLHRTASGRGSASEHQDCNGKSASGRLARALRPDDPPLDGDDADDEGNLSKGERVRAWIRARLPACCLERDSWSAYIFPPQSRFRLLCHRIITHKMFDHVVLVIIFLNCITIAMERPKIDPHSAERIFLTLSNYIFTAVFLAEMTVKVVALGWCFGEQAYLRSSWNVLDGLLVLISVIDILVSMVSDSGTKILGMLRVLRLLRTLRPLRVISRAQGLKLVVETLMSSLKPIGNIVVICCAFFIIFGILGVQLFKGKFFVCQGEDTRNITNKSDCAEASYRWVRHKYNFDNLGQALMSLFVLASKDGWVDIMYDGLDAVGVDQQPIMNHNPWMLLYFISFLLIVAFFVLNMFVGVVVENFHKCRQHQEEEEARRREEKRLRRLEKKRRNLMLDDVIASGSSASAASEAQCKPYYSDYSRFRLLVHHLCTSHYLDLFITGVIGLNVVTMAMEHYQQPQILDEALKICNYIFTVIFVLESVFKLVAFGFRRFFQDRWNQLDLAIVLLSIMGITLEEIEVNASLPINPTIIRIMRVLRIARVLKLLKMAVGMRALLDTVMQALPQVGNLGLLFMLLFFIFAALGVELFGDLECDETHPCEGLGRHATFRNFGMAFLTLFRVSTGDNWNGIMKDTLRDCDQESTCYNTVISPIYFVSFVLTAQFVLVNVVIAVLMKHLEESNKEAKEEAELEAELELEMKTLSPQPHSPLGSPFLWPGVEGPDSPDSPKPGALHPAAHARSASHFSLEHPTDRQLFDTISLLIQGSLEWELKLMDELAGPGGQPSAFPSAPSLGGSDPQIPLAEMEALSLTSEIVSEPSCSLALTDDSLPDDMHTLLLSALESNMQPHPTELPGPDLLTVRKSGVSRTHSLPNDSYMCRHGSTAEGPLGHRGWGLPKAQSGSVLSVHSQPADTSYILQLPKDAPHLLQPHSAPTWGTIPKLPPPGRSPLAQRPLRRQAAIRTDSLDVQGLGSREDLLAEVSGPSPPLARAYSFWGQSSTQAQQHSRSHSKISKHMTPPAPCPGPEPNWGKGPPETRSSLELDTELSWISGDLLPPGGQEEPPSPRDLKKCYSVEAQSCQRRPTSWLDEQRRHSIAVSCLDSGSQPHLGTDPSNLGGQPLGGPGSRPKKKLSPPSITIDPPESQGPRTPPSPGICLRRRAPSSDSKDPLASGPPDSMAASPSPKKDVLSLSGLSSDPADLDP
Chain of T-type calcium channel (Homo sapiens, UniProt O43497) (O43497 whole entry): as above

| Molecule | IC50 [1] [nM] | IC50 [2] [nM] | IC50 [3] [nM] | other results |
| --- | --- | --- | --- | --- |
| O=C(Nc1ccc(C(F)(F)F)cn1)[C@H]1C[C@H](S(=O)(=O)c2cccc(C(F)(F)F)c2)C1 [Compound 415, (1R,3R)-3-(3-(trifluoromethyl)phenylsulfonyl)-N-(5-(trifluoromethyl)pyridin-2-yl)cyclobutanecarboxamide] | > 10000 | > 10000 | 1760 | – |
| O=C(Nc1ccc(C(F)(F)F)cn1)[C@H]1C[C@@H](S(=O)(=O)c2cccc(C(F)(F)F)c2)C1 [Compound 416, (1S,3S)-3-(3-(trifluoromethyl)phenylsulfonyl)-N-(5-(trifluoromethyl)pyridin-2-yl)cyclobutanecarboxamide] | 8180 | > 10000 | 1650 | – |
| Cc1nc(C(F)(F)F)ccc1NC(=O)[C@H]1C[C@H](S(=O)(=O)c2cccc(C(F)(F)F)c2)C1 [Compound 417, (1R,3R)-N-(2-methyl-6-(trifluoromethyl)pyridin-3-yl)-3-(3-(trifluoromethyl)phenylsulfonyl)cyclobutane carboxamide] | 4690 | > 10000 | 5440 | – |
| Cc1nc(C(F)(F)F)ccc1NC(=O)[C@H]1C[C@@H](S(=O)(=O)c2cccc(C(F)(F)F)c2)C1 [Compound 418, (1S,3S)-N-(2-methyl-6-(trifluoromethyl)pyridin-3-yl)-3-(3-(trifluoromethyl)phenylsulfonyl)cyclobutane carboxamide] | 2870 | > 10000 | 3500 | – |
| O=C(Nc1cncc(Cl)c1)[C@H]1C[C@H](S(=O)(=O)c2cccc(C(F)(F)F)c2)C1 [Compound 419, (1R,3R)-N-(5-chloropyridin-3-yl)-3-(3-(trifluoromethyl)phenylsulfonyl)cyclobutane carboxamide] | > 10000 | > 10000 | 3430 | – |
| O=C(Nc1cncc(Cl)c1)[C@H]1C[C@@H](S(=O)(=O)c2cccc(C(F)(F)F)c2)C1 [Compound 420, (1S,3S)-N-(5-chloropyridin-3-yl)-3-(3-(trifluoromethyl)phenylsuIfonyl)cyclobutane carboxamide] | 710 | 2020 | 1250 | – |
| Cc1noc(C)c1S(=O)(=O)NC[C@H]1C[C@H](S(=O)(=O)c2cccc(C(F)(F)F)c2)C1 [Compound 422, 3,5-dimethyl-N-(((1R,3R)-3-(3-(trifluoromethyl)phenylsulfonyl)cyclobutyl)methyl)isoxazole-4-sulfonamide] | 1390 | 2250 | 2670 | – |
| O=S(=O)(NC[C@H]1C[C@H](S(=O)(=O)c2cccc(C(F)(F)F)c2)C1)c1ccc(C(F)(F)F)cc1Cl [Compound 423, 2-chloro-4-(trifluoromethyl)-N-(((1R,3R)-3-(3-(trifluoromethyl)phenylsulfonyl)cyclobutyl)methyl)benzenesulfonamide] | > 10000 | > 10000 | 1280 | – |
| O=S(=O)(NC[C@H]1C[C@H](S(=O)(=O)c2cccc(C(F)(F)F)c2)C1)c1ccc(C(F)(F)F)cc1 [Compound 424, 4-(trifluoromethyl)-N-(((1R,3R)-3-(3-(trifluoromethyl)phenylsulfonyl)cyclobutyl)methyl)benzenesulfonamide] | 1040 | 2290 | 1460 | – |
| O=S(=O)(CCC(F)(F)F)NC[C@H]1C[C@H](S(=O)(=O)c2cccc(C(F)(F)F)c2)C1 [Compound 425, 3,3,3-trifluoro-N-(((1R,3R)-3-(3-(trifluoromethyl)phenylsulfonyl)cyclobutyl)methyl)propane-1-sulfonamide] | 1070 | 1550 | 3760 | – |
| O=S(=O)(NC[C@H]1C[C@H](S(=O)(=O)c2cccc(C(F)(F)F)c2)C1)c1cccc(C(F)(F)F)c1 [Compound 427, 3-(trifluoromethyl)-N-(((1R,3R)-3-(3-(trifluoromethyl)phenylsulfonyl)cyclobutyl)methyl)benzenesulfonamide] | 880 | 3820 | 920 | – |
| O=C(N[C@H]1C[C@H](S(=O)(=O)c2cccc(C(F)(F)F)c2)C1)c1ccc(Cl)c(F)c1 [Compound 429, 4-chloro-3-fluoro-N-((1S,3S)-3-(3-(trifluoromethyl)phenylsulfonyl)cyclobutyl)benzamide] | 8370 | > 10000 | 770 | – |
| O=C(CN[C@H]1C[C@@H](S(=O)(=O)c2cccc(C(F)(F)F)c2)C1)NC1CCC(F)(F)CC1 [Compound 431, N-(4,4-difluorocyclohexyl)-2-((1S,3S)-3-(3-(trifluoromethyl)phenylsulfonyl)cyclobutylamino) acetamide] | 240 | 920 | 1840 | – |
| CC(C)S(=O)(=O)c1cc(C(F)(F)F)cnc1C(=O)N[C@H]1C[C@H](S(=O)(=O)c2cccc(C(F)(F)F)c2)C1 [Compound 432, 3-(isopropylsulfonyl)-5-(trifluoromethyl)-N-((1R,3R)-3-(3-(trifluoromethyl)phenylsulfonyl)cyclobutyl) picolinamide] | 330 | 1290 | 810 | – |
| CC([C@H]1C[C@H](NC(=O)c2ccc(F)c(Cl)c2)C1)S(=O)(=O)c1cccc(C(F)(F)F)c1 (stereo partly drawn) [Compound 434, 3-chloro-4-fluoro-N-((1R,3R)-3-( (R)-1-(3-(trifluoromethyl)phenylsulfonyl)ethyl)cyclobutyl)benzamide] | 680 | 1130 | 210 | – |
| CC(C)([C@H]1C[C@H](NC(=O)c2cc(C(F)(F)F)n[nH]2)C1)S(=O)(=O)c1cc(F)cc(C(F)(F)F)c1 [Compound 594] | – | – | – | IC50 (Human Cav 2.2 channels; [6]): 6080 nM; IC50 (Human Cav 2.2 channels; [7]): 520 nM; CAv2.2 IC50 Ratio closed/inact. (Human Cav 2.2 channels; ratio closed/inactivated IC50): 11.7; IC50 (T-type calcium channel [4]): ≥ 10000 nM; IC50 (T-type calcium channel [5]; [8]): 9230 nM; IC50 (T-type calcium channel [5]; [9]): 2350 nM |
| N[C@H]1CCCCC1C(=O)NC[C@H]1C[C@H](S(=O)(=O)c2cc(F)cc(C(F)(F)F)c2)C1 (some centres unmarked) [Compound 711] | – | – | – | IC50 (Human Cav 2.2 channels; [6]): 10000 nM; IC50 (Human Cav 2.2 channels; [7]): 5160 nM; CAv2.2 IC50 Ratio closed/inact. (Human Cav 2.2 channels; ratio closed/inactivated IC50): 1.9; IC50 (T-type calcium channel [4]): ≥ 10000 nM; IC50 (T-type calcium channel [5]; [9]): 10000 nM |
| NC1(CC(=O)N2CC(CS(=O)(=O)c3cc(F)cc(C(F)(F)F)c3)C2)CCCCC1 [Compound 749] | – | – | – | IC50 (Human Cav 2.2 channels; [7]): ≥ 10000 nM; IC50 (T-type calcium channel [4]): ≥ 10000 nM; IC50 (T-type calcium channel [5]; [8]): ≥ 10000 nM; IC50 (T-type calcium channel [5]; [9]): 10000 nM; CAv3.2 IC50 Ratio closed/inact. (T-type calcium channel [5]; CAv3.2, ratio closed/inact.): 1 |
| CC(C)([C@H]1C[C@@H](CNc2ccc(Cl)c(F)c2)C1)S(=O)(=O)c1cccc(C(F)(F)F)c1 [Compound 754] | – | – | – | IC50 (Human Cav 2.2 channels; [7]): 7220 nM; CAv2.2 IC50 Ratio closed/inact. (Human Cav 2.2 channels; ratio closed/inact.): 1.4; IC50 (T-type calcium channel [4]): ≥ 10000 nM; IC50 (T-type calcium channel [5]; [9]): 10000 nM |
| N-tert-butyl-2-((1S,4S)-4-((3- (trifluoromethyl)phenylsulfonyl) methyl)cyclohexylamino)acetamide [Compound 144] | 670 | 1350 | 1250 | – |
